Assays:
POLCO = assay: Post-emergence herbicidal action against POLCO; assay type: in vivo, Polygonum convolvulus; settings: 320 g/ha, visual rating about 3 weeks after treatment
Protocol: (§1) [table] Seeds of mono- and dicotyledonous weed plants are placed in plastic pots in sandy loam soil (twin sowing with one species each of mono- or dicotyledonous weed plants per pot), covered with soil and cultivated in a greenhouse under controlled growth conditions. 2 to 3 weeks after sowing, the test plants are treated at the one-leaf stage. The compounds of the invention, formulated in the form of wettable powders (WP) or as emulsion concentrates (EC), are applied to the green parts of the plants as aqueous suspension or emulsion with addition of 0.5% additive at a water application rate equivalent to 600 litres per hectare. After the test plants have been kept in the greenhouse under optimum growth conditions for about 3 weeks, the activity of the preparations is rated visually in comparison to untreated controls. For example, 100% activity=the plants have died, 0% activity=like control plants. Tables 5.1-5.16 below show the effects of selected compounds of the general formula (I) according to Tables 1 to 3 on various harmful plants at an application rate corresponding to 1280 or 320 g/ha, which have been obtained by the aforementioned experimental method.

AMARE [1] = assay: Post-emergence herbicidal action against AMARE; assay type: in vivo, Amaranthus retroflexus; settings: visual rating about 3 weeks after treatment
Summary of the method: (§2)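 Rates of 1280 or 320 g/ha were sprayed onto green parts of one-leaf-stage plants grown in sandy loam pots, with 0.5% additive and 600 litres per hectare water. After about 3 weeks under optimum greenhouse conditions, activity is rated visually: 100% = dead plants, 0% = as control.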

PHBPU = assay: Post-emergence herbicidal action against PHBPU; assay type: in vivo, Pharbitis purpurea; settings: 320 g/ha, visual rating about 3 weeks after treatment
Protocol: as §1

AMARE [2] = assay: Pre-emergence herbicidal action against AMARE; assay type: in vivo, Amaranthus retroflexus; settings: scored visually after about 3 weeks vs untreated controls; for Pre-emergence action at 320 g/ha against AMARE in %: 100% = plants have died, 0% = like control plants; for Pre-emergence action against AMARE in %: 1280 g/ha
Summary of the method: (§3)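 Visual percent activity (100% = plants dead, 0% = like control) scored about 3 weeks after pre-emergence treatment in greenhouse. Compounds as WP or EC, applied to covering soil surface with 0.5% additive, 600 L/ha water, at 1280 or 320 g/ha.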

ECHCG [3] = assay: Pre-emergence herbicidal action against ECHCG; assay type: in vivo, Echinochloa crus-galli; settings: scored visually after about 3 weeks vs untreated controls, 100% = plants have died, 0% = like control plants
Source text: (§4) Seeds of mono- and dicotyledonous weed plants are placed in plastic pots in sandy loam soil (doubly sown with one species each of mono- or dicotyledonous weed plants per pot) and covered with soil. The compounds of the invention, formulated in the form of wettable powders (WP) or as emulsion concentrates (EC), are then applied onto the surface of the covering soil as aqueous suspension or emulsion with addition of 0.5% additive at a water application rate equivalent to 600 litres per hectare. After the treatment, the pots are placed in a greenhouse and kept under good growth conditions for the trial plants. After about 3 weeks, the effect of the preparations is scored visually in comparison with untreated controls as percentages. For example, 100% activity=the plants have died, 0% activity=like control plants. [table] Tables 4.1-4.15 below show the effects of selected compounds of the general formula (I) according to Tables 1 to 3 on various harmful plants at an application rate corresponding to 1280 or 320 g/ha, which have been obtained by the aforementioned experimental method.

SETVI [4] = assay: Pre-emergence herbicidal action against SETVI; assay type: in vivo, Setaria viridis; settings: 1280 g/ha, scored visually after about 3 weeks vs untreated controls
Summary of the method: as §3

STEME [5] = assay: Pre-emergence herbicidal action against STEME; assay type: in vivo, Stellaria media; settings: scored visually after about 3 weeks vs untreated controls
Summary of the method: as §3

VERPE [6] = assay: Pre-emergence herbicidal action against VERPE; assay type: in vivo, Veronica persica; settings: 320 g/ha, scored visually after about 3 weeks vs untreated controls
Source text: as §4

ECHCG [7] = assay: Post-emergence herbicidal action against ECHCG; assay type: in vivo, Echinochloa crus-galli; settings: 1280 g/ha, post-emergence at one-leaf stage, rated visually after about 3 weeks vs untreated controls
Protocol: as §1

STEME [8] = assay: Post-emergence herbicidal action against STEME; assay type: in vivo, Stellaria media; settings: visual rating about 3 weeks after treatment
Summary of the method: as §2

SETVI [9] = assay: Post-emergence herbicidal action against SETVI; assay type: in vivo, Setaria viridis; settings: 1280 g/ha, post-emergence at one-leaf stage, rated visually after about 3 weeks vs untreated controls
Protocol: as §1

MATIN = assay: Post-emergence herbicidal action against MATIN; assay type: in vivo, Matricaria inodora; settings: visual rating about 3 weeks after treatment
Summary of the method: as §2

VERPE [10] = assay: Post-emergence herbicidal action against VERPE; assay type: in vivo, Veronica persica; settings: 320 g/ha, visual rating about 3 weeks after treatment
Protocol: as §1

VIOTR = assay: Post-emergence herbicidal action against VIOTR; assay type: in vivo, Viola tricolor; settings: 320 g/ha, visual rating about 3 weeks after treatment
Protocol: as §1

Row | SMILES | Post-emergence action against POLCO in % (POLCO) [%] | Post-emergence action against AMARE in % (AMARE [1]; 320 g/ha) [%] | Post-emergence action against AMARE in % (AMARE [1]; 1280 g/ha) [%] | Post-emergence action against PHBPU in % (PHBPU) [%] | Pre-emergence action at 320 g/ha against AMARE in % (AMARE [2]) [%] | Pre-emergence action against AMARE in % (AMARE [2]) [%] | Pre-emergence action at 1280 g/ha against ECHCG in % (ECHCG [3]) [%] | Pre-emergence action against SETVI in % (SETVI [4]) [%] | Pre-emergence action against STEME in % (STEME [5]; 1280 g/ha) [%] | Pre-emergence action against VERPE in % (VERPE [6]) [%] | Post-emergence action against ECHCG in % (ECHCG [7]) [%] | Post-emergence action against STEME in % (STEME [8]; 1280 g/ha) [%] | Post-emergence action against SETVI in % (SETVI [9]) [%] | Post-emergence action against MATIN in % (MATIN; 1280 g/ha) [%] | Post-emergence action against MATIN in % (MATIN; 320 g/ha) [%] | Post-emergence action against VERPE in % (VERPE [10]) [%] | Post-emergence action against VIOTR in % (VIOTR) [%] | Post-emergence action against STEME in % (STEME [8]; 320 g/ha) [%] | Pre-emergence action against STEME in % (STEME [5]; 320 g/ha) [%]
1 | C=CCNC(=O)COc1nn(-c2ccccc2)c(-c2ccc(F)cc2)c1Br [III-004] | 80 | 80 | 100 | 80 | 80 | 100 | 100 | 100 | 100 | 100 | – | – | – | – | – | – | – | – | –
2 | CCOC(=O)COc1nn(-c2ccc(F)cc2F)c(-c2cccc(F)c2)c1Cl [I-098] | – | – | 100 | – | – | 100 | 100 | 90 | 100 | – | 100 | 90 | 90 | 90 | – | – | – | – | –
3 | COC(=O)COc1nn(-c2ccc(F)cc2)c(-c2ccccc2)c1C#N [I-011] | 80 | – | – | – | – | 90 | 80 | – | – | – | – | 80 | – | 90 | 90 | 80 | – | – | –
4 | COC(=O)C(C)Oc1nn(-c2c(F)cccc2F)c(-c2ccc(F)c(F)c2)c1Br (stereo not shown) [I-169] | – | – | 100 | – | – | 100 | 100 | 100 | 100 | – | 90 | 100 | 90 | 90 | – | – | – | – | –
5 | COC(=O)COc1nn(-c2ccc(Cl)cc2)c(-c2cccc(F)c2)c1Cl [I-029] | – | – | – | 80 | – | – | – | – | – | – | – | – | – | – | – | 80 | – | – | –
6 | COC(=O)C(C)Oc1nn(-c2ccccc2)c(-c2cccc(F)c2)c1Cl (stereo not shown) [I-164] | – | – | 100 | – | – | 100 | 100 | 100 | 100 | – | 90 | 100 | 100 | 100 | – | – | – | – | –
7 | CCOC(=O)COc1nn(-c2ccc(F)cc2F)c(-c2ccccc2)c1Cl [I-100] | 90 | 80 | 90 | 90 | 100 | 100 | 100 | 100 | 100 | 100 | 90 | 90 | – | 90 | 80 | 90 | 100 | 80 | 90
